Data taken from article PMC12677607, “Identification of a Pair of Linear or Cyclic Naturally Inspired Bifunctional Lipopeptide Antibiotics That Overcome Antimicrobial Resistance” (Advanced Science, 2025).
Values after ≈ are worked out from the molar mass of the structure shown.

Assays:
[1] = system: Mycobacterium smegmatis mc2155; assay: microbe, parasite or virus in culture; conditions: Mycolicibacterium smegmatis, MC2155, read-out: MIC Mycobacterium smegmatis mc2155
[2] = system: Staphylococcus aureus ATCC 25923; assay: microbe, parasite or virus in culture; assay type: cell-based; conditions: Staphylococcus aureus, ATCC25923, 16 h, read-out: MIC Staphylococcus aureus ATCC 25923
Summary of the method: (§1)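 Broth micro-dilution in LB; overnight cultures diluted 5000-fold, mixed 1:1 with 2-fold peptide series from 64 to 0.125 µg mL^−1. MIC taken as lowest concentration with no visible growth; n = 2 independent runs.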

[3] = system: Enterococcus faecalis 26; assay: microbe, parasite or virus in culture; assay type: cell-based; conditions: Enterococcus faecalis, 26, 16 h, read-out: MIC Enterococcus faecalis 26
Summary of the method: as §1

[4] = system: Streptococcus mutans ATCC 25175; assay: microbe, parasite or virus in culture; assay type: cell-based; conditions: Streptococcus mutans, ATCC25175, 16 h, read-out: MIC Streptococcus mutans ATCC 25175
Summary of the method: as §1

[5] = system: Staphylococcus aureus USA300; assay: microbe, parasite or virus in culture; assay type: cell-based; conditions: Staphylococcus aureus, USA300, 16 h, read-out: MIC Staphylococcus aureus USA300
Summary of the method: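 Broth microdilution in LB, run in two independent repeats. Overnight cultures were diluted 5000-fold, except S. aureus at 10000-fold, and mixed with peptide-containing LB (2-fold series, 64 to 0.125 µg mL^−1 before mixing). MIC is the lowest concentration that prevented visible growth.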

[6] = system: Enterococcus faecium 35682; assay: microbe, parasite or virus in culture; assay type: cell-based; conditions: Enterococcus faecium, 35682, 16 h, read-out: MIC Enterococcus faecium 35682
Summary of the method: as §1

[7] = system: Staphylococcus aureus Newman; assay: microbe, parasite or virus in culture; assay type: cell-based; conditions: Staphylococcus aureus, NEWMAN, 16 h, read-out: MIC Staphylococcus aureus Newman
Summary of the method: as §1

[8] = system: Staphylococcus aureus ATCC 6538; assay: microbe, parasite or virus in culture; assay type: cell-based; conditions: Staphylococcus aureus, ATCC6538, 16 h, read-out: MIC Staphylococcus aureus ATCC 6538
Summary of the method: as §1

[9] = system: Streptococcus pyogenes ATCC 19615; assay: microbe, parasite or virus in culture; assay type: cell-based; conditions: Streptococcus pyogenes, ATCC19615, 16 h, read-out: MIC Streptococcus pyogenes ATCC 19615
Summary of the method: as §1

[10] = system: Enterococcus faecalis ATCC 29212; assay: microbe, parasite or virus in culture; assay type: cell-based; conditions: Enterococcus faecalis, ATCC29212, 16 h, read-out: MIC Enterococcus faecalis ATCC 29212
Summary of the method: as §1

[11] = system: Enterococcus faecalis 28; assay: microbe, parasite or virus in culture; assay type: cell-based; conditions: Enterococcus faecalis, 28, 16 h, read-out: MIC Enterococcus faecalis 28
Summary of the method: as §1

[12] = system: K. pneumoniae CRKP 5452 PhoQL348Q; assay: MIC against colistin-resistant mutant; assay type: cell-based; conditions: Figure S127a, colistin-resistant mutant from serial passaging
Procedure: (§2) All MIC assays were performed two independent times (n = 2) in 96‐well plates using a broth micro‐dilution method. The lowest concentration of that inhibited visible microbial growth was recorded as the MIC value.
(§3) For most of bacterial strains, overnight cultures were diluted 5000‐fold in LB broth. For E. faecium and S. aureus, overnight cultures were diluted 1000‐ and 10000‐fold in LB broth, respectively. 100 µL of diluted cells was mixed with 100 µL of LB broth containing each peptide ranging from 64 to 0.125 µg mL^−1 at 2‐fold serial dilutions.
(§4) Overnight cultures S. aureus USA300 were diluted 10000‐fold in LB broth, and 100 µL of dilute cell suspension was added to 96‐well plates containing 100 µL serially diluted aquicidine C4, telomycin, and daptomycin (with 15 mM CaCl2). Overnight cultures K. pneumoniae CRKP5452 were diluted 5000‐fold in LB broth, and 100 µL of dilute cell suspension was added to 96‐well plates containing 100 µL serially diluted aquicidine L and colistin. After an incubation of 24 h at 37 °C, the MIC value was determined. […] The MIC value was recorded as described above, and the process was repeated daily for 21 days. Experiments were performed two independent times (n = 2).
Single‐nucleotide polymorphisms (SNPs) for telomycin‐, daptomycin‐ or colistin‐resistant mutants were identified using SNIPPY by mapping DNBSEQ‐seq reads to the reference genome of S. aureus USA300 or K. pneumoniae CRKP5452.

[13] = system: K. pneumoniae CRKP5452; assay: Resistance acquisition by serial passaging; assay type: cell-based; conditions: K. pneumoniae CRKP5452, sub-MIC levels, daily passage for 21 days, n = 2
Procedure: as §4

[14] = system: Klebsiella pneumoniae CRKP 5452; assay: microbe, parasite or virus in culture; assay type: cell-based; conditions: Figure S127a, wild type
Summary of the method: as §1

[15] = system: Klebsiella pneumoniae NCTC 5056; assay: microbe, parasite or virus in culture; assay type: cell-based; conditions: Figure S127a, colistin-resistant strain
Summary of the method: as §1

[16] = system: Klebsiella pneumoniae CRKP HS11286; assay: microbe, parasite or virus in culture; assay type: cell-based; conditions: Figure S127a
Summary of the method: as §1

[17] = system: K. pneumoniae 15580; assay: MIC against colistin-resistant strain; assay type: cell-based; conditions: Figure S127a
Procedure: as §2, §3

[18] = system: fungi; conditions: Figure S20, known peptide; cited from earlier work

CN[C@H](CC(C)C)C(=O)N[C@H]1C(=O)N[C@@H](CC(N)=O)C(=O)N[C@H]2C(=O)N[C@H]3C(=O)N[C@H](C(=O)N[C@H](C(=O)O)c4cc(O)cc(O)c4-c4cc3ccc4O)[C@H](O)c3ccc(c(Cl)c3)Oc3cc2cc(c3O[C@@H]2O[C@H](CO)[C@@H](O)[C@H](O)[C@H]2O[C@H]2C[C@](C)(N)[C@H](O)[C@H](C)O2)Oc2ccc(cc2Cl)[C@H]1O [Vancomycin, reference compound]
MIC [1]: > 64 µg/mL | MIC [2]: 1 µg/mL (≈ 0.69 µM) | MIC [3]: 1 µg/mL (≈ 0.69 µM) | MIC [4]: 2 µg/mL (≈ 1.38 µM) | MIC [5]: 1 µg/mL (≈ 0.69 µM) | MIC [6]: > 64 µg/mL | MIC [7]: 0.5 µg/mL (≈ 0.345 µM) | MIC [8]: 1 µg/mL (≈ 0.69 µM) | MIC [9]: 0.5 µg/mL (≈ 0.345 µM) | MIC [10]: 2 µg/mL (≈ 1.38 µM) | MIC [11]: > 64 µg/mL

Colistin [reference compound]
antibacterial activity (MIC) K. pneumoniae CRKP 5452 PhoQL348Q [12]: 4 µg/mL | increase of MIC during serial passaging [13]: 13.3 fold | antibacterial activity (MIC) K. pneumoniae CRKP 5452 [14]: 0.125 µg/mL | antibacterial activity (MIC) K. pneumoniae NCTC 5056 [15]: 32 µg/mL | antibacterial activity (MIC) K. pneumoniae CRKP HS11286 [16]: 0.125 µg/mL | antibacterial activity (MIC) K. pneumoniae 15580 [17]: > 64 µg/mL

Keanumycin A
anti-fungal activity [18]: Pot ent anti-fungal activity
